From patent publication US20130245081A1, “Compositions and Methods for Treating Amyotrophic Lateral Sclerosis” (priority 2009, published 2013)
Marks after values point to notes of the source that are not given here.

Columns and labels:
patients with ALS = test: Part 2: 4-week single-blind placebo washout period (withdrawal effects)
[1] = 150 mg during Part 1, placebo washout period
[2] = 300 mg during Part 1, placebo washout period

CCCN[C@@H]1CCc2nc(N)sc2C1 [dexpramipexole, (6R)-2-amino-4,5,6,7-tetrahydro-6-(propylamino)benzothiazole]
−2.7%: mean change from baseline in VC over 4 weeks (patients with ALS; [2])
2 (8%) N (%): TEAE: Psychiatric Disorders (patients with ALS; [1]) | TEAE: Respiratory, Thoracic and Mediastinal Disorders (patients with ALS; [1]) | ≧1 treatment-related TEAE (patients with ALS; [1]) | ALS-related TEAE: Fall (patients with ALS; [2]) | ALS-related TEAE: Injury, Poisoning and Procedural Complications (patients with ALS; [2]) | TEAE: Musculoskeletal and Connective Tissue Disorders (patients with ALS; [2]) | TEAE: Nausea (patients with ALS; [2]) | TEAE: Pyrexia (patients with ALS; [2]) | ≧1 treatment-related TEAE (patients with ALS; [2])
1 (4%) N (%): TEAE: General Disorders and Administration Site Conditions (patients with ALS; [1]) | TEAE: Muscle spasms (patients with ALS; [1]) | TEAE: Muscular weakness (patients with ALS; [1]) | TEAE: Nausea (patients with ALS; [1]) | TEAE: Post lumbar puncture syndrome (patients with ALS; [1]) | ALS-related TEAE: Dyspnoea (patients with ALS; [2]) | ALS-related TEAE: Muscle spasms (patients with ALS; [2]) | ALS-related TEAE: Musculoskeletal and Connective Tissue Disorders (patients with ALS; [2]) | ALS-related TEAE: Respiratory, Thoracic and Mediastinal Disorders (patients with ALS; [2]) | TEAE: Back pain (patients with ALS; [2]) | TEAE: Diarrhoea (patients with ALS; [2]) | TEAE: Dyspnoea (patients with ALS; [2]) | TEAE: Muscle spasms (patients with ALS; [2]) | TEAE: Post lumbar puncture syndrome (patients with ALS; [2]) | TEAE: Respiratory, Thoracic and Mediastinal Disorders (patients with ALS; [2]) | serious TEAE: Dyspnoea (patients with ALS; [2]) | serious TEAE: Respiratory, Thoracic and Mediastinal Disorders (patients with ALS; [2]) | ≧1 serious TEAE (including death) (patients with ALS; [2]) | ≧1 severe TEAE (patients with ALS; [2])
11 (46%) N (%): ≧1 TEAE (patients with ALS; [2])
−1.7%: mean change from baseline in VC over 4 weeks (patients with ALS; [1])
1 (4%)^b N (%): Subjects with a TEAE with action taken of study drug discontinued (patients with ALS; [2])
13 (52%) N (%): ≧1 TEAE (patients with ALS; [1])
3 (13%) N (%): TEAE: Constipation (patients with ALS; [2]) | TEAE: Fall (patients with ALS; [2]) | TEAE: Gastrointestinal Disorders (patients with ALS; [2]) | TEAE: General Disorders and Administration Site Conditions (patients with ALS; [2])
4.112 (1.1979) ×10^3/μL: Neutrophil Count, Mean (SD) (patients with ALS; 300 mg during Part 1, Part 2: Week 4 (end of placebo washout))
1 subject: subjects who required a tracheostomy (patients with ALS; [2])
1: Number of serious TEAEs (patients with ALS; [2]) | Number of severe TEAEs (patients with ALS; [2])
3: Number of treatment-related TEAEs (patients with ALS; [2])
4 (16%) N (%): TEAE: Injury, Poisoning and Procedural Complications (patients with ALS; [1])
3 (12%) N (%): TEAE: Musculoskeletal and Connective Tissue Disorders (patients with ALS; [1])
46: Number of TEAEs (patients with ALS; [2])
0.130 (1.3502) ×10^3/μL: Neutrophil Count, Mean Δ (SD) from baseline to Week 4 (patients with ALS; [2])
0 N (%): TEAE: Pyrexia (patients with ALS; [1]) | serious TEAE: Disease progression (patients with ALS; [1]) | serious TEAE: Dyspnoea (patients with ALS; [1]) | serious TEAE: General Disorders and Administration Site Conditions (patients with ALS; [1]) | serious TEAE: Renal and Urinary Disorders (patients with ALS; [1]) | serious TEAE: Respiratory, Thoracic and Mediastinal Disorders (patients with ALS; [1]) | serious TEAE: Urethral obstruction (patients with ALS; [1]) | serious TEAE: Urinary retention (patients with ALS; [1]) | ≧1 TEAE with an outcome of death (patients with ALS; [1]) | ≧1 serious TEAE (including death) (patients with ALS; [1]) | ≧1 serious treatment-related TEAE (patients with ALS; [1]) | ≧1 severe TEAE (patients with ALS; [1]) | ALS-related TEAE: Disease progression (patients with ALS; [2]) | ALS-related TEAE: General Disorders and Administration Site Conditions (patients with ALS; [2]) | ALS-related TEAE: Muscular weakness (patients with ALS; [2]) | TEAE: Anxiety (patients with ALS; [2]) | TEAE: Cough (patients with ALS; [2]) | TEAE: Muscular weakness (patients with ALS; [2]) | TEAE: Psychiatric Disorders (patients with ALS; [2]) | serious TEAE: Disease progression (patients with ALS; [2]) | serious TEAE: General Disorders and Administration Site Conditions (patients with ALS; [2]) | serious TEAE: Renal and Urinary Disorders (patients with ALS; [2]) | serious TEAE: Urethral obstruction (patients with ALS; [2]) | serious TEAE: Urinary retention (patients with ALS; [2]) | ≧1 TEAE with an outcome of death (patients with ALS; [2]) | ≧1 serious treatment-related TEAE (patients with ALS; [2])
10,000-20,000 fold: functional affinity difference between pramipexole and dexpramipexole (dopamine receptor)
−1.0: mean change from baseline in ALSFRS-R score over 4 weeks (patients with ALS; [1])
−1.5: mean change from baseline in ALSFRS-R score over 4 weeks (patients with ALS; [2])
5 (21%) N (%): Subjects with ≧1 ALS-related TEAE (patients with ALS; [2])
3.905 (1.9377) ×10^3/μL: Neutrophil Count, Mean (SD) (patients with ALS; 300 mg during Part 1, Baseline (Part 1: Week 12))
6 (25%) N (%): TEAE: Injury, Poisoning and Procedural Complications (patients with ALS; [2])
